Data: patent publication US20220298146A1, “HETEROCYCLIC DERIVATIVE AND USE THEREOF” (Transthera Sciences (Nanjing), Inc., priority 2019, published 2022)

What was measured:
[1] = biological target: T1, Ron (h) (Homo sapiens, UniProt Q04912); assay: Enzymatic activity assay, Ron (h) kinase, [γ-33P]-ATP; assay type: biochemical; conditions: 10 μM [γ-33P]-ATP, 40 min, room temperature; read-out: Inhibitory Activity on Ron (h) kinase, IC50
T1 construct: purchased
Protocol: (§1) Test samples: the compounds of the present invention, having structures and preparation methods shown above.
(§2) (1) Preparation of Compound Stock Solutions
(§3) Compounds were each dissolved in 100% DMSO to prepare stock solutions with a maximum concentration of 500 μM.
(§4) (2) Preparation of Compound Working Solutions
(§5) The compound stock solutions were diluted to final concentrations of 500 μM, 150 μM, 50 μM, 15 μM, 5 μM, 1.5 μM, 0.5 μM, 0.15 μM and 0.05 μM to prepare compound working solutions (50×).
(3) Preparation of Different Enzymatic Reaction Solutions
Ron (h) enzyme was dissolved in a mixture of 8 mM MOPS (pH 7.0), 0.2 mM EDTA and 250 μM GGMEDIYFEFMGGKKK to prepare an enzyme solution with a final concentration of 40.4 nM. An Mg/ATP mixture of 10 mM magnesium acetate and 10 μM [γ-^33P]-ATP was used to activate the enzymatic reaction.
(§6) The compound working solutions were added to a 384-well plate, with final concentrations of 10000 nM, 3000 nM, 1000 nM, 300 nM, 100 nM, 30 nM, 10 nM, 3 nM and 1 nM, respectively, and then different enzymatic reaction solutions prepared according to the above conditions were added. The reaction solutions were incubated at room temperature for 40 min, and then 0.5% phosphoric acid solutions were added to terminate the reaction. 10 μL of the reaction solution was added dropwise to P30 filter paper which was washed 4 times with a 0.425% phosphoric acid solution and once with methanol and then placed in a scintillation counter for detection. Gray analysis was performed on the results with Image J software, and IC50 values were calculated with GraphPad 5.0 software.

[2] = biological target: T2, Tyro-3 (h) (Homo sapiens, UniProt Q06418); assay: Enzymatic activity assay, Tyro-3 (h) kinase, [γ-33P]-ATP; assay type: biochemical; conditions: 10 μM [γ-33P]-ATP, 40 min, room temperature; read-out: Inhibitory Activity on Tyro-3 (h), IC50
T2 construct: purchased
T2 sequence (Q06418 41-890): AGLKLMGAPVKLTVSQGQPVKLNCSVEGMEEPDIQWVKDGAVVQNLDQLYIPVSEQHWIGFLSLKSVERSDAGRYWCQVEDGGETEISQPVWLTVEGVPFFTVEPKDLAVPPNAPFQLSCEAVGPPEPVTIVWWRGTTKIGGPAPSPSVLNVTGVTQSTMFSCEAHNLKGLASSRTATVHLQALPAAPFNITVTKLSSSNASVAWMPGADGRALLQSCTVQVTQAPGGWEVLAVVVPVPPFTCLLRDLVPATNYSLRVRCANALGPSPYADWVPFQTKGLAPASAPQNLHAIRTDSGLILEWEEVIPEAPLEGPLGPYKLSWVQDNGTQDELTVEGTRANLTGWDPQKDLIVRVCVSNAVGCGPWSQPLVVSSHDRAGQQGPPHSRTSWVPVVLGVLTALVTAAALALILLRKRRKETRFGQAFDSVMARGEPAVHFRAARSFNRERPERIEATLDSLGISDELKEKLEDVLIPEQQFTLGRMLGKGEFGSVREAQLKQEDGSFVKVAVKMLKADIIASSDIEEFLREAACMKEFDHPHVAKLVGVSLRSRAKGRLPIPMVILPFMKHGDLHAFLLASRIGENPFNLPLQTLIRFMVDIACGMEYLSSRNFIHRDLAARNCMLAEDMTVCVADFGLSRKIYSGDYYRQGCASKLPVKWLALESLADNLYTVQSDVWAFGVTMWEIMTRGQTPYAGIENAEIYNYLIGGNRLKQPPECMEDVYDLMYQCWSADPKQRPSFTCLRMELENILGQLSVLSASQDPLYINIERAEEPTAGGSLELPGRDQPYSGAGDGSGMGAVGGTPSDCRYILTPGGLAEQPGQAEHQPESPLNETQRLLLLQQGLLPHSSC
Protocol: as §1, §2, §3, §4, §5
(3) Preparation of different enzymatic reaction solutions
Tyro3 (h) enzyme was dissolved in a mixture of 8 mM MOPS (pH 7.0), 0.2 mM EDTA, 1 mM MnCl2 and 250 μM KVEKIGEGTYGVVYK to prepare an enzyme solution with a final concentration of 38 nM. An Mg/ATP mixture of 10 mM magnesium acetate and 10 μM [γ-^33P]-ATP was used to activate the enzymatic reaction.
as §6

T1 sequence (Q04912 25-1400): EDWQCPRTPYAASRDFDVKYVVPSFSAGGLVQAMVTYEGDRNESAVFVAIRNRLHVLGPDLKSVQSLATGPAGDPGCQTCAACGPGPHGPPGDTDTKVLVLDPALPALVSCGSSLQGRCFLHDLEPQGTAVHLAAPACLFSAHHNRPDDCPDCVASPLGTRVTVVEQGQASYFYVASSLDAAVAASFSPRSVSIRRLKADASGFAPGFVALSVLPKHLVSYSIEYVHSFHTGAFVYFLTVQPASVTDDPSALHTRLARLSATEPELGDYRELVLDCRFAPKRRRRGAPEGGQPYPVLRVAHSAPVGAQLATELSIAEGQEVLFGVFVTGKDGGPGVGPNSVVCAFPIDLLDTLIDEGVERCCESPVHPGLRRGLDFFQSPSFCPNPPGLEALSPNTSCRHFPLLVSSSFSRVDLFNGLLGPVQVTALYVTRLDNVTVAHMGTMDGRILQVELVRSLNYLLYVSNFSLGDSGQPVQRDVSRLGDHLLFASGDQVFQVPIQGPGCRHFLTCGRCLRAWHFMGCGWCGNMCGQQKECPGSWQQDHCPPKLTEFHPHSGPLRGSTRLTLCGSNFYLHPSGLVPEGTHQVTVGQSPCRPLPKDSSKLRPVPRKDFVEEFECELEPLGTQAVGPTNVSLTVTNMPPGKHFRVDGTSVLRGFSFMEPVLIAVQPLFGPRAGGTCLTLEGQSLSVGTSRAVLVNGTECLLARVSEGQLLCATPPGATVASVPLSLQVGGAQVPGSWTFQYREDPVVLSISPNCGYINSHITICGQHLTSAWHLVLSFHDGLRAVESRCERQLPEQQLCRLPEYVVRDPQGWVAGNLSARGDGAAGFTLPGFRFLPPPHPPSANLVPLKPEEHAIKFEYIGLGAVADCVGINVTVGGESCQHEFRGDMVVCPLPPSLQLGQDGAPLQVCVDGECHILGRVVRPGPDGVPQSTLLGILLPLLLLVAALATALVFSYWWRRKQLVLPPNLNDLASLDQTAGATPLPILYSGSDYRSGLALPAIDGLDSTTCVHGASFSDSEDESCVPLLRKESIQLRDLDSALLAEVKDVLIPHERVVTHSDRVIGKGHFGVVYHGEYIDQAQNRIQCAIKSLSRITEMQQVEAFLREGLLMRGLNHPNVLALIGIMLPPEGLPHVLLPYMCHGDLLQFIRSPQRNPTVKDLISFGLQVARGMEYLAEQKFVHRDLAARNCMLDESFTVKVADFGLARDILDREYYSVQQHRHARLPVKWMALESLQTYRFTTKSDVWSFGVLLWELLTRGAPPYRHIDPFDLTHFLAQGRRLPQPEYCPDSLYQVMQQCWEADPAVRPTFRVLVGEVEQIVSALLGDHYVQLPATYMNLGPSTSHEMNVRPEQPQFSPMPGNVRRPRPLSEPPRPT

Row | Structure (SMILES) | IC50 [1] [nM] | IC50 [2] [nM]
1 | CC(C)n1cc(-c2ccc(F)cc2)c(=O)c(C(=O)Nc2ccc(Oc3ccnc(N)c3Cl)cn2)n1 [Compound 11, N-(5-((2-amino-3-chloropyridin-4-yl)oxy)pyridin-2-yl)-5-(4-fluorophenyl)-1-isopropyl-4-oxo-1,4-dihydropyridazine-3-carboxamide] | 2 | 54
2 | CC(C)n1cc(-c2ccc(F)cc2)c(=O)c(C(=O)Nc2ncc(Oc3ccnc(N)c3Cl)cn2)n1 [Compound 12, N-(5-((2-amino-3-chloropyridin-4-yl)oxy)pyrimidin-2-yl)-5-(4-fluorophenyl)-1-isopropyl-4-oxo-1,4-dihydropyridazine-3-carboxamide] | 19 | 23
3 | CC(C)n1cc(-c2ccc(F)cc2)c(=O)c(C(=O)Nc2ccc(Oc3ccnc(N)c3Cl)nc2)n1 [Compound 13, N-(6-((2-amino-3-chloropyridin-4-yl)oxy)pyridin-3-yl)-5-(4-fluorophenyl)-1-isopropyl-4-oxo-1,4-dihydropyridazine-3-carboxamide] | 16 | 39
4 | Nc1nccc(Oc2ccc(NC(=O)c3nn(C4CC4)cc(-c4ccc(F)cc4)c3=O)nc2)c1Cl [Compound 17, N-(5-((2-amino-3-chloropyridin-4-yl)oxy)pyridin-2-yl)-1-cyclopropyl-5-(4-fluorophenyl)-4-oxo-1,4-dihydropyridazine-3-carboxamide] | 7 | 31
5 | Nc1nccc(Oc2cnc(NC(=O)c3nn(C4CC4)cc(-c4ccc(F)cc4)c3=O)nc2)c1Cl [Compound 18, N-(5-((2-amino-3-chloropyridin-4-yl)oxy)pyrimidin-2-yl)-5-(4-fluorophenyl)-1-cyclopropyl-4-oxo-1,4-dihydropyridazine-3-carboxamide] | 14 | 49
6 | Nc1nccc(Oc2ccc(NC(=O)c3nn(C4CC4)cc(-c4ccc(F)cc4)c3=O)cn2)c1Cl [Compound 19, N-(6-((2-amino-3-chloropyridin-4-yl)oxy)pyridin-3-yl)-1-cyclopropyl-5-(4-fluorophenyl)-4-oxo-1,4-dihydropyridazine-3-carboxamide] | 64 | 73
7 | Cn1cc(-c2ccc(F)cc2)c(=O)c(C(=O)Nc2ccc(Oc3ccnc(N)c3Cl)cn2)n1 [Compound 33, N-(5-((2-amino-3-chloropyridin-4-yl)oxy)pyridin-2-yl)-5-(4-fluorophenyl)-1-methyl-4-oxo-1,4-dihydropyridazine-3-carboxamide] | 17 | 23
8 | C=CCn1cc(-c2ccc(F)cc2)c(=O)c(C(=O)Nc2ccc(Oc3ccnc(N)c3Cl)cn2)n1 [Compound 35, 1-allyl-N-(5-((2-amino-3-chloropyridin-4-yl)oxy)pyridin-2-yl)-5-(4-fluorophenyl)-4-oxo-1,4-dihydropyridazine-3-carboxamide] | 5 | 24
9 | C=CCn1cc(-c2ccc(F)cc2)c(=O)c(C(=O)Nc2ncc(Oc3ccnc(N)c3Cl)cn2)n1 [Compound 37] | 12 | 22
10 | C=CCn1cc(-c2ccc(F)cc2)c(=O)c(C(=O)Nc2ccc(Oc3ccnc(N)c3Cl)nc2)n1 [Compound 39, 1-allyl-N-(6-((2-amino-3-chloropyridin-4-yl)oxy)pyridin-3-yl)-5-(4-fluorophenyl)-4-oxo-1,4-dihydropyridazine-3-carboxamide] | 12 | 28
